Key:
Assay in all cases: relative viability (nuclei count vs DMSO), 5 days (fraction); higher = more cells survive
[1] = compound: C1CC2=C(C1)C=C(C=C2)OC3=NC(=C4C(=N3)N(C=N4)CC5=CC=C(C=C5)C6=CC=CC=C6)N[C@@H](CC7=CC=CC=C7)CO [QS11] + C[C@@H](Oc1cc(-c2cnn(C3CCNCC3)c2)cnc1N)c1c(Cl)ccc(F)c1Cl [Crizotinib] (partner 1 µM)
Outline: (§1)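 Relative viability is defined as nuclei in treated wells over nuclei in vehicle wells. Duplicate plates were run and medians reported. Lung cancer cell lines in 1536-well plates were dosed by pin tool one day after seeding, with one drug or with a fixed anchor-drug dose plus five library-drug doses (not always all listed) in √10 steps, and nuclei were counted after 5 days.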

[2] = compound: CC1=C(C=C(C=C1)NC(=O)C2=CC(=CC=C2)C(C)(C)C#N)NC3=CC4=C(C=C3)N=CN(C4=O)C [AZ628] + CS(=O)(=O)CCNCc1ccc(-c2ccc3ncnc(Nc4ccc(OCc5cccc(F)c5)c(Cl)c4)c3c2)o1 [Lapatinib] (partner 2 µM)
Outline: as §1

[3] = compound: C[As](C)SC[C@H](NC(=O)CC[C@H](N)C(=O)O)C(=O)NCC(=O)O [Darinaparsin] + C[C@]1(O)C[C@@H](c2nc(-c3ccc4ccc(-c5ccccc5)nc4c3)c3c(N)nccn32)C1 [Linsitinib] (partner 1 µM)
Outline: as §1

[4] = compound: C[As](C)SC[C@H](NC(=O)CC[C@H](N)C(=O)O)C(=O)NCC(=O)O [Darinaparsin] + Cc1cc(Nc2cc(N3CCN(C)CC3)nc(Sc3ccc(NC(=O)C4CC4)cc3)n2)n[nH]1 [Tozasertib] (partner 0.1 µM)
Outline: as §1

Row | Cell Line | relative viability ([1]; first compound 0.08 µM) | relative viability ([1]; first compound 0.253 µM) | relative viability ([1]; first compound 0.8 µM) | relative viability ([1]; first compound 2.53 µM) | relative viability ([1]; first compound 8 µM) | relative viability ([2]; first compound 0.08 µM) | relative viability ([2]; first compound 0.253 µM) | relative viability ([2]; first compound 0.8 µM) | relative viability ([2]; first compound 2.53 µM) | relative viability ([2]; first compound 8 µM) | relative viability ([3]; first compound 0.08 µM) | relative viability ([3]; first compound 0.8 µM) | relative viability ([3]; first compound 2.53 µM) | relative viability ([3]; first compound 8 µM) | relative viability ([4]; first compound 0.08 µM) | relative viability ([4]; first compound 0.8 µM) | relative viability ([4]; first compound 2.53 µM) | relative viability ([4]; first compound 8 µM)
1 | HCC-44 | 0.868 | 0.729 | 0.577 | 0.688 | 0.519 | 0.982 | 1.06 | 1.01 | 1.02 | 0.844 | 0.841 | 0.636 | 0.441 | 0.86 | 1.21 | 0.927 | 0.769 | 0.87
2 | NCI-H650 | 0.722 | 0.726 | 0.753 | 0.55 | 0.607 | 1.2 | 0.778 | 1.08 | 1.2 | 0.898 | 1.26 | 0.9 | 0.801 | 0.871 | 0.788 | 0.693 | 0.792 | 0.807
3 | PC-3 [JPC-3] | 0.957 | 0.97 | 0.949 | 1.03 | 1.01 | 0.488 | 0.5 | 0.52 | 0.47 | 0.471 | 0.961 | 0.955 | 1.06 | 1.05 | 1.08 | 0.996 | 0.739 | 1.1
4 | CAL-12T | 0.579 | 0.733 | 0.626 | 0.394 | 0.512 | 0.884 | – | 0.599 | 0.616 | 0.573 | 1.08 | 0.757 | 0.686 | 0.956 | 0.343 | 0.3 | 0.326 | 0.341
5 | NCI-H1944 | 1.13 | 1.43 | – | 0.91 | 0.834 | 0.855 | 0.892 | 0.831 | 0.747 | 0.701 | 1.14 | 1.3 | 1.23 | 1.35 | 0.245 | 0.263 | 0.251 | 0.243
6 | NCI-H322M | 0.934 | 0.835 | 0.79 | 0.754 | 1 | 0.674 | 0.737 | 0.747 | 0.646 | 0.657 | 1.05 | 0.998 | 0.736 | 0.956 | 0.564 | 0.464 | 0.423 | 0.492
7 | SK-MES-1 | 1.12 | 0.98 | 0.993 | 0.977 | 0.929 | 0.475 | 0.501 | 0.479 | 0.473 | 0.437 | 1.15 | 0.99 | 0.812 | 1.25 | 1.08 | 0.854 | 0.74 | 0.968
8 | A-427 | 0.779 | 0.885 | – | 0.829 | 0.821 | 1.1 | 0.599 | 0.99 | 1.06 | 0.773 | 1.2 | 1.09 | 1.13 | 1.12 | 0.2 | 0.215 | 0.177 | 0.193
9 | NCI-H1355 | 0.99 | 1.58 | 0.823 | 0.915 | 0.972 | 0.974 | 0.934 | 0.947 | 0.944 | 0.862 | 0.805 | 0.746 | 0.686 | 0.838 | 0.571 | 0.568 | 0.44 | 0.499
10 | NCI-H2023 | 0.774 | 0.537 | 0.586 | 0.641 | 0.648 | 0.914 | 0.859 | 0.914 | 0.763 | 0.689 | 0.7 | 0.669 | 0.604 | 0.858 | 0.696 | 0.306 | 0.357 | 0.425
11 | NCI-H520 | – | 0.907 | 0.831 | 0.587 | 0.932 | 0.901 | 0.857 | 0.743 | 0.778 | 0.766 | 1.02 | 1.08 | 0.863 | 0.985 | 0.468 | 0.369 | 0.348 | 0.409
12 | NCI-H2087 | 0.849 | 0.794 | 0.65 | 0.652 | 0.573 | 0.795 | 0.799 | 0.636 | 0.865 | 0.41 | 1.07 | 0.997 | 1.01 | 0.94 | 0.243 | 0.246 | 0.254 | 0.22
13 | NCI-H596 | 1.03 | 0.862 | 0.963 | 0.991 | 1.04 | 1.03 | 1.08 | 1.11 | 1.08 | 1.27 | 1.3 | 0.934 | 0.928 | 1.27 | 1.13 | 0.958 | 0.872 | 0.979
14 | NCI-H2009 | 1.02 | 1.09 | 0.882 | 1.03 | 0.791 | 0.548 | 0.799 | 0.469 | 0.715 | 0.294 | 1.29 | 1.18 | 1.13 | 1.15 | 0.927 | 0.682 | 0.731 | 0.884
15 | NCI-H1993 | 0.974 | 0.756 | 0.868 | 0.827 | 0.771 | 0.883 | 0.78 | 0.766 | 0.834 | 0.838 | 0.65 | 0.7 | 0.699 | 0.695 | 0.598 | 0.585 | 0.549 | 0.557
16 | COR-L23 | 0.672 | 0.642 | 0.481 | 0.447 | 0.481 | 1.11 | 1.05 | 1.04 | 0.968 | 0.683 | 1.24 | 0.886 | 0.859 | 1.02 | 0.208 | 0.225 | 0.24 | 0.196
17 | HOP-62 | 0.853 | 0.863 | 0.846 | 0.703 | 0.45 | 1.12 | 0.978 | 1.01 | 0.957 | 0.631 | 1.25 | 0.94 | 0.899 | 1.02 | 0.352 | 0.414 | 0.343 | 0.354
18 | NCI-H1437 | 0.99 | 1.04 | 0.862 | 0.747 | 0.744 | 0.858 | 0.735 | 0.738 | 0.94 | 0.97 | 1.52 | 1.14 | 0.888 | 1.29 | 0.439 | 0.394 | 0.353 | 0.434
19 | HCC-366 | 0.565 | 0.542 | – | 0.292 | 0.324 | 1.1 | 0.918 | 0.968 | 0.87 | 0.717 | 0.969 | 0.609 | 0.427 | 1.06 | 0.147 | 0.0892 | 0.149 | 0.168
20 | NCI-H1755 | 0.889 | 0.826 | 0.509 | 0.677 | 0.691 | 0.99 | 0.951 | 0.96 | 1.04 | 1.02 | 1.07 | 0.969 | 1.02 | 1.13 | 0.576 | 0.471 | 0.483 | 0.616
21 | NCI-H3122 | 0.25 | 0.3 | 0.313 | 0.436 | 0.616 | 0.975 | 0.733 | 0.733 | 0.684 | 0.435 | 1.1 | 1.08 | 1.08 | 1.03 | 0.446 | 0.41 | 0.377 | 0.417
22 | SW 1573 | 0.802 | 0.796 | 0.817 | 0.629 | 0.876 | 0.997 | 0.964 | 0.283 | 0.884 | 0.874 | 0.935 | 0.811 | 0.874 | 0.906 | 0.145 | 0.2 | 0.197 | 0.14
23 | NCI-H2085 | 0.907 | 0.95 | 0.84 | 0.776 | 0.802 | 0.824 | 0.685 | 0.795 | 0.741 | 0.743 | 0.935 | 0.864 | 0.889 | 1.05 | 0.953 | 0.814 | 0.78 | 0.892
24 | NCI-H727 | 0.813 | 0.958 | 0.857 | 0.729 | 0.631 | 0.484 | 0.472 | 0.415 | 0.326 | 0.296 | 0.3 | 0.225 | 0.319 | 0.354 | 0.731 | 0.552 | 0.699 | 0.599
25 | NCI-H2405 | 0.822 | 0.883 | 0.808 | 0.88 | 0.95 | 0.733 | 0.59 | 0.487 | 0.487 | 0.515 | 1.01 | 0.91 | 0.812 | 0.887 | 0.777 | 0.776 | 0.703 | 0.889
26 | NCI-H1666 | 0.995 | 0.808 | 0.668 | 0.52 | 0.432 | 0.759 | 0.58 | 0.521 | 0.477 | 0.539 | 0.996 | 0.884 | 0.994 | 0.931 | 0.623 | 0.612 | 0.745 | 0.579
27 | BEN | 0.801 | 1.06 | 0.978 | 0.736 | 1.09 | 0.775 | 0.554 | 0.661 | 0.815 | 0.545 | 0.947 | 1.02 | 0.764 | 1.11 | 0.489 | 0.498 | 0.463 | 0.444
28 | HARA | 1.11 | 1.1 | – | 1.1 | 1.04 | 0.742 | 0.633 | 0.57 | 0.671 | 0.488 | 1.38 | 0.852 | 0.75 | 1.19 | 0.153 | 0.103 | 0.125 | 0.0804
29 | RERF-LC-KJ | 0.467 | 0.906 | 0.847 | 0.769 | 0.759 | 0.825 | 0.837 | 0.846 | 0.839 | 0.888 | 1.03 | 0.979 | 0.876 | 0.946 | 0.482 | 0.483 | 0.447 | 0.472
30 | NCI-H1975 | 1.08 | 1.03 | 0.853 | 1.16 | 0.817 | 0.866 | 0.723 | 0.85 | 0.921 | 0.513 | 1.11 | 1.01 | 0.944 | 1.26 | 1.12 | 0.804 | 0.783 | 0.905
